Experimental data: patent publication US20180200257A1, “METHODS FOR THE TREATMENT OF INFLAMMATORY DISORDERS” (Galapagos NV, priority 2015, published 2018)

How the values were obtained:
[1] = system: Subjects With Active Crohn's Disease With Evidence of Mucosal Ulceration; experiment: Study 3 - Alanine Aminotransferase (ALT) levels; assay type: in vivo, human
Text: Double-Blind, Randomized, Placebo-Controlled, Multi-Centre Study to Investigate the Efficacy and Safety of Compound 1 in Subjects With Active Crohn's Disease With Evidence of Mucosal Ulceration. This is a double-blind, randomized, placebo-controlled, multi-centre Phase 2 study to investigate the efficacy and safety of Compound 1 administered once daily for the treatment of active CD with evidence of mucosal ulceration. The pharmacokinetics (including a PK substudy) and pharmacodynamics of Compound 1 and metabolite in CD will also be characterised. A total of 180 eligible subjects will be randomized to receive Compound 1 or placebo in addition to their stable background treatment (eg, corticosteroids, aminosalicylates, or CD-related antibiotics). The study will consist of 2 parts, with total treatment duration of 20 weeks. Randomization in Part 1 will be stratified according the subject's previous anti-TNF exposure/response, CRP level at Screening, and oral corticosteroid use at visit Day −1. After the first 10 weeks of treatment in Part 1, patients will be re-randomized for Part 2 as shown in the diagram below and will be stratified according to the subject's clinical response, previous anti-TNF exposure/response, and oral corticosteroid use at visit Day -1. [table] ALT levels determination is available at Quest Diagnostics, Clinical Trials, Quest House, 125-135 Staines Road, Hounslow, Middlesex, TW3 3JB, United Kingdom under Catalogue n#84460. ALT catalyzes the exchange of the amino group of alanine with the oxogroup of 2-ketoglutarate to form pyruvate and glutamate. In the presence of lactic dehydrogenase, pyruvate reacts with NADH to form NAD+, measured spectrophotometrically. Guidelines for the ALT value have been issued by the association for Clinical Biochemistry and Laboratory Medicine, 130-132 Tooley Street LONDON SE1 2TU, united Kingdom, wherein the ALT value should be below 34 U/l in Female and below 52 U/L in male.

[2] = system: Subjects With Active Crohn's Disease With Evidence of Mucosal Ulceration; experiment: Study 3 - Histopathology score; assay type: in vivo, human; settings: 200 mg, LOCF
Text: Double-Blind, Randomized, Placebo-Controlled, Multi-Centre Study to Investigate the Efficacy and Safety of Compound 1 in Subjects With Active Crohn's Disease With Evidence of Mucosal Ulceration.
This is a double-blind, randomized, placebo-controlled, multi-centre Phase 2 study to investigate the efficacy and safety of Compound 1 administered once daily for the treatment of active CD with evidence of mucosal ulceration. The pharmacokinetics (including a PK substudy) and pharmacodynamics of Compound 1 and metabolite in CD will also be characterised.
A total of 180 eligible subjects will be randomized to receive Compound 1 or placebo in addition to their stable background treatment (eg, corticosteroids, aminosalicylates, or CD-related antibiotics). The study will consist of 2 parts, with total treatment duration of 20 weeks. Randomization in Part 1 will be stratified according the subject's previous anti-TNF exposure/response, CRP level at Screening, and oral corticosteroid use at visit Day −1.
After the first 10 weeks of treatment in Part 1, patients will be re-randomized for Part 2 as shown in the diagram below and will be stratified according to the subject's clinical response, previous anti-TNF exposure/response, and oral corticosteroid use at visit Day -1.
Histopathology data is collected from patients biopsy, and evaluated according to the procedure reported in D'haens et al., 1998.

[3] = 10 weeks results, 200 mg q.d., week 2
[4] = 10 weeks results, 200 mg q.d., week 4
[5] = 10 weeks results, 200 mg q.d., week 6
[6] = 10 weeks results, 200 mg q.d., week 10
[7] = 20 weeks results, 200 mg q.d. week 0 to 10, to 100 mg q.d. week 10 to 20, week 2
[8] = 20 weeks results, 200 mg q.d. week 0 to 10, to 100 mg q.d. week 10 to 20, week 4
[9] = 20 weeks results, 200 mg q.d. week 0 to 10, to 100 mg q.d. week 10 to 20, week 6
[10] = 20 weeks results, 200 mg q.d. week 0 to 10, to 100 mg q.d. week 10 to 20, week 10
[11] = 20 weeks results, 200 mg q.d. week 0 to 10, to 100 mg q.d. week 10 to 20, week 12
[12] = 20 weeks results, 200 mg q.d. week 0 to 10, to 100 mg q.d. week 10 to 20, week 16
[13] = 20 weeks results, 200 mg q.d. week 0 to 10, to 100 mg q.d. week 10 to 20, week 20
[14] = 20 weeks results, 200 mg q.d. week 0 to 10, to placebo week 10 to 20, week 2
[15] = 20 weeks results, 200 mg q.d. week 0 to 10, to placebo week 10 to 20, week 4
[16] = 20 weeks results, 200 mg q.d. week 0 to 10, to placebo week 10 to 20, week 6
[17] = 20 weeks results, 200 mg q.d. week 0 to 10, to placebo week 10 to 20, week 10
[18] = 20 weeks results, 200 mg q.d. week 0 to 10, to placebo week 10 to 20, week 12
[19] = 20 weeks results, 200 mg q.d. week 0 to 10, to placebo week 10 to 20, week 16
[20] = 20 weeks results, 200 mg q.d. week 0 to 10, to placebo week 10 to 20, week 20
[21] = 20 weeks results, continued 200 mg q.d., week 2
[22] = 20 weeks results, continued 200 mg q.d., week 4
[23] = 20 weeks results, continued 200 mg q.d., week 6
[24] = 20 weeks results, continued 200 mg q.d., week 10
[25] = 20 weeks results, continued 200 mg q.d., week 12
[26] = 20 weeks results, continued 200 mg q.d., week 16
[27] = 20 weeks results, continued 200 mg q.d., week 20
[28] = 20 weeks results, placebo week 0 to 10, to 100 mg q.d. week 10 to 20, week 12
[29] = 20 weeks results, placebo week 0 to 10, to 100 mg q.d. week 10 to 20, week 16
[30] = 20 weeks results, placebo week 0 to 10, to 100 mg q.d. week 10 to 20, week 20
[31] = Anti-TNF experienced non-responders
[32] = baseline corticosteroid use: with steroids
[33] = baseline corticosteroid use: without steroids

## O=C(Nc1nc2cccc(-c3ccc(CN4CCS(=O)(=O)CC4)cc3)n2n1)C1CC1 [Compound 1, cyclopropanecarboxylic acid {5-[4-(1,1-dioxo-thiomorpholin-4-ylmethyl)-phenyl]-[1,2,4]triazolo[1,5-a]pyridin-2-yl}-amide]
[1]; [3]
  Study 3 - ALT Mean CFB: 0.0 IU/L
  Study 3 - ALT Mean percentage CFB: 8.3%
[1]; [4]
  Study 3 - ALT Mean CFB: −0.6 IU/L
  Study 3 - ALT Mean percentage CFB: 5.8%
[1]; [5]
  Study 3 - ALT Mean CFB: −1.2 IU/L
  Study 3 - ALT Mean percentage CFB: 3.1%
[1]; [6]
  Study 3 - ALT Mean CFB: 1.6 IU/L
  Study 3 - ALT Mean percentage CFB: 24.4%
[1]; [7]
  Study 3 - ALT Mean CFB: −2.03 IU/L
  Study 3 - ALT Mean percentage CFB: −4.84%
[1]; [8]
  Study 3 - ALT Mean CFB: −1.93 IU/L
  Study 3 - ALT Mean percentage CFB: −3.24%
[1]; [9]
  Study 3 - ALT Mean CFB: −1.60 IU/L
  Study 3 - ALT Mean percentage CFB: −0.60%
[1]; [10]
  Study 3 - ALT Mean CFB: −0.50 IU/L
  Study 3 - ALT Mean percentage CFB: 5.92%
[1]; [11]
  Study 3 - ALT Mean CFB: 0.03 IU/L
  Study 3 - ALT Mean percentage CFB: 3.56%
[1]; [12]
  Study 3 - ALT Mean CFB: 0.21 IU/L
  Study 3 - ALT Mean percentage CFB: 8.83%
[1]; [13]
  Study 3 - ALT Mean CFB: 6.15 IU/L
  Study 3 - ALT Mean percentage CFB: 38.62%
[1]; [14]
  Study 3 - ALT Mean CFB: −2.30 IU/L
  Study 3 - ALT Mean percentage CFB: 3.63%
[1]; [15]
  Study 3 - ALT Mean CFB: −2.04 IU/L
  Study 3 - ALT Mean percentage CFB: 8.87%
[1]; [16]
  Study 3 - ALT Mean CFB: −3.78 IU/L
  Study 3 - ALT Mean percentage CFB: 1.03%
[1]; [17]
  Study 3 - ALT Mean CFB: −1.48 IU/L
  Study 3 - ALT Mean percentage CFB: 12.60%
[1]; [18]
  Study 3 - ALT Mean CFB: 1.48 IU/L
  Study 3 - ALT Mean percentage CFB: 16.15%
[1]; [19]
  Study 3 - ALT Mean CFB: 1.90 IU/L
  Study 3 - ALT Mean percentage CFB: 23.87%
[1]; [20]
  Study 3 - ALT Mean CFB: −0.38 IU/L
  Study 3 - ALT Mean percentage CFB: 17.82%
[1]; [21]
  Study 3 - ALT Mean CFB: 1.46 IU/L
  Study 3 - ALT Mean percentage CFB: 14.82%
[1]; [22]
  Study 3 - ALT Mean CFB: 0.36 IU/L
  Study 3 - ALT Mean percentage CFB: 8.36%
[1]; [23]
  Study 3 - ALT Mean CFB: −0.17 IU/L
  Study 3 - ALT Mean percentage CFB: 5.47%
[1]; [24]
  Study 3 - ALT Mean CFB: 3.75 IU/L
  Study 3 - ALT Mean percentage CFB: 38.09%
[1]; [25]
  Study 3 - ALT Mean CFB: 3.00 IU/L
  Study 3 - ALT Mean percentage CFB: 26.61%
[1]; [26]
  Study 3 - ALT Mean CFB: 4.04 IU/L
  Study 3 - ALT Mean percentage CFB: 33.15%
[1]; [27]
  Study 3 - ALT Mean CFB: 2.53 IU/L
  Study 3 - ALT Mean percentage CFB: 22.15%
[1]; [28]
  Study 3 - ALT Mean CFB: −0.55 IU/L
  Study 3 - ALT Mean percentage CFB: 10.24%
[1]; [29]
  Study 3 - ALT Mean CFB: −1.95 IU/L
  Study 3 - ALT Mean percentage CFB: 2.75%
[1]; [30]
  Study 3 - ALT Mean CFB: −2.05 IU/L
  Study 3 - ALT Mean percentage CFB: 4.96%
[2]; Anti-TNF Naïve
  Overall total score mean, % CFB at week 10: −14%
  Overall total score mean, CFB at week 10: −3.9
  Overall total score mean, baseline: 20.3
  Overall total score mean, week 10: 16.1
[2]; [31]
  Overall total score mean, % CFB at week 10: −7%
  Overall total score mean, CFB at week 10: −3.2
  Overall total score mean, baseline: 25.0
  Overall total score mean, week 10: 21.6
[2]; [32]
  Overall total score mean, % CFB at week 10: −15%
  Overall total score mean, CFB at week 10: −4.3
  Overall total score mean, baseline: 24.9
  Overall total score mean, week 10: 20.3
[2]; [33]
  Overall total score mean, % CFB at week 10: −5%
  Overall total score mean, CFB at week 10: −2.7
  Overall total score mean, baseline: 20.7
  Overall total score mean, week 10: 17.9
[2]; overall
  Overall total score mean, % CFB at week 10: −10%
  Overall total score mean, CFB at week 10: −3.5
  Overall total score mean, baseline: 22.8
  Overall total score mean, week 10: 19.1
[2]; screening CRP ≤ 10 ml/L
  Overall total score mean, % CFB at week 10: −20%
  Overall total score mean, CFB at week 10: −4.8
  Overall total score mean, baseline: 21.8
  Overall total score mean, week 10: 17.1
[2]; screening CRP ≥ 10 mg/L
  Overall total score mean, % CFB at week 10: 4%
  Overall total score mean, CFB at week 10: −1.8
  Overall total score mean, baseline: 24.3
  Overall total score mean, week 10: 21.8
